Row | Compound | logP
1 | CC(C)(C)c1ccc(C2CCCC(O)C2)c(O)c1 (centres undefined) | 4.05
2 | CCCCCc1cc(OCc2ccc(-c3ccccc3)cc2)c2c(c1)OC(C)(C)C1CC=C(C)CC21 (centres undefined) | 10.9
3 | CCCCCCC(C)(C)c1cc(O)c2c(c1)OC(C)(C)C1CC=C(C)CC21 (centres undefined) | 9.96
4 | CCCCCCC(C)(C)c1ccc(C2CC(O)CCC2CCCO)c(O)c1 (centres undefined) | 6.13
5 | CCCCCCC(C)(C)c1ccc(C2CCCC(O)C2)c(O)c1 (centres undefined) | 6.68
6 | CCCCCCCCCCC(C)(C)c1ccc(C2CCCC(O)C2)c(O)c1 (centres undefined) | 8.42
7 | CCCCCCCC(C)(C)c1ccc([C@H]2CCC[C@@H](O)C2)c(O)c1 | 7.18
8 | CCCC(C)(C)c1ccc(C2CCCC(O)C2)c(O)c1 (centres undefined) | 4.82
9 | CCCCCc1cc(O)c2c(c1)OC(C)(C)[C@@H]1CC=C(C(=O)O)C[C@@H]21 | 3.51
10 | CCCCCC(C)(C)c1ccc([C@H]2CCC[C@@H](O)C2)c(O)c1 | 5.97
11 | CCCCCc1cc(O)c2c(c1)OC(C)(C)c1ccc(C)cc1-2 | 6.23
12 | CCCCCCC(C)(C)c1ccc(C2CC(O)CCC2CCCCO)c(O)c1 (centres undefined) | 6.68
13 | CCC(C)(C)c1ccc(C2CCCC(O)C2)c(O)c1 (centres undefined) | 4.32
14 | CCCCCCC(C)(C)c1cc(O)c2c(c1)OC(C)(C)C1CCC(CO)=CC21 (centres undefined) | 7.83
15 | CC(=O)Oc1cc(OC(C)CCCc2ccccc2)cc2c1C1CC(O)CCC1C(C)N2C (centres undefined) | 5.72
16 | C=C1CC[C@@H]2[C@@H](C1)c1c(OCc3ccc(-c4ccccc4)cc3)cc(CCCCC)cc1OC2(C)C | 11.3
17 | CCCCCc1cc(OCCCCCN2CC(=O)c3ccccc3C2=O)c2c(c1)OC(C)(C)C1CC=C(C)CC21 (centres undefined) | 9.07

Row | Compound | logP
18 | CC1=CCC2C(C1)c1c(O)cc(NS(C)(=O)=O)cc1OC2(C)C (centres undefined) | 3.12
19 | CCCCCc1cc(OC)c2c(c1)OC(C)(C)[C@@H]1CC=C(C)C[C@@H]21 | 8.06
20 | CCCCCc1cc(OCCCCN)c2c(c1)OC(C)(C)C1CC=C(C)CC21 (centres undefined) | 8.38
21 | C=C1CCC2C(C1)c1c(OC)cc(CCC)cc1OC2(C)C (centres undefined) | 6.26
22 | CCCCCCC(C)(C)c1ccc(C2CC(O)CCC2C)c(O)c1 (centres undefined) | 7.49
23 | CCCCCc1cc(O)c2c(c1)OC(C)(C)C1CC=C(C)CC21 (centres undefined) | 7.41
24 | C=C1CCC2C(C1)c1c(OC)cc(CCCCC)cc1OC2(C)C (centres undefined) | 7.62
25 | CCCCCc1cc(O)c2c(c1)OC(C)(C)[C@@H]1CCC(CO)=C[C@@H]21 | 5.33
26 | CCCCCC(C)C(C)c1cc(O)c2c(c1)OC(C)(C)C1=C2CC(C)CC1 (centres undefined) | 8.3
27 | CCCCC(C)(C)c1ccc(C2CCCC(O)C2)c(O)c1 (centres undefined) | 5.43
28 | CCCCCCCCC(C)(C)c1ccc([C@H]2CCC[C@@H](O)C2)c(O)c1 | 8.16
29 | CC(=O)Oc1cc(O[C@H](C)CCCc2ccccc2)cc2c1[C@@H]1C[C@H](O)CC[C@H]1[C@H](C)N2 | 5.7
30 | C=C1C[C@H]2c3c(O)cc(CCCCC)cc3OC(C)(C)[C@@H]2C[C@H]1O | 4.24
31 | C=C(C)[C@@H]1CCC(C)=C[C@H]1c1c(O)cc(CCCCC)cc1O | 5.79
32 | CCCCCCC(C)(C)c1cc(O)c2c(c1)OC(C)(C)C1CCC(C=O)=CC21 (centres undefined) | 8.03
33 | CCCCCCC(C)(C)c1ccc([C@@H]2C[C@H](O)C[C@@H]3CC[C@H](CO)C[C@H]32)c(O)c1 | 6.13
34 | CCCCCCC(C)(C)c1cc(O)c2c(c1)OC(C)(C)C1CC=C(CO)CC21 (centres undefined) | 7.44
